Test results as given in patent publication US7612208B2, “Crystalline form of the salt of 4-(3-chloro-4-(cyclopropylaminocarbonyl)aminophenoxy)-7-methoxy-6-quinolinecarboxamide or the solvate of the salt and a process for preparing the same” (Eisai R&D Management Co., Ltd., priority 2003, dated 2009).

Legend:
[1] = Test for measuring dissolution rate (rotating disk method); assay type: physicochemical; conditions: 2nd fluid pH 6.8, 37° C., 50 rpm
Description: The dissolution rates of the following crystals were measured under the conditions described below by the rotating disk method (see, J. H. Woods et al., J. Pharm. Soc., 54, 1068 (1955)): a crystalline form of the free carboxamide (obtained in Preparation Example 1), a crystalline form of the hydrochloride of the carboxamide (obtained in Example 1), a crystalline form of the hydrobromide of the carboxamide (obtained in Example 2), a crystalline form of the methanesulfonate (hereunder, referred to as “mesylate”) of the carboxamide (Form A) (obtained in Example 5), a crystalline form of the mesylate of the carboxamide (Form C) (obtained in Example 7) and a crystalline form of the ethanesulfonate (hereunder, referred to as “esylate”) (Form β) (obtained in Example 12). The dissolution rates were calculated based on a range in which linearity was maintained in the relation between concentration and time at the initial stage of dissolution.
(Rotating Disk Method Conditions)
• Solvent: “2nd fluid” (pH 6.8, 500 mL) as described in Japanese Pharmacopoeia 14th Edition, General Tests (disintegration test) • Temperature: 37° C. • Disk rotation speed: 50 rpm • Area of powder contacting with solvent on disk: 1 cm^2 • Sampling amount: approx. 1 mL (HPLC Conditions) • Column: Cadenza CD-18 (Imtakt Corporation; inner diameter 4.6 mm, Column length 100 mm, particle size 3 μm) • Column temperature: 40° C. • Flow rate: 1.0 mL/min • Mobile phase:
Concentration of solution B: 20% • Injection amount: 100 μL • Detection: ultraviolet absorbance photometer (wavelength: 252 nm) • Temperature of auto sampler: 25° C. [Results]

angiogenesis = conditions: free-form product; Example 368 of WO 02/32872; cited from earlier work
[2] = Study of pharmacokinetics in beagle dogs; assay type: in vivo; conditions: mean ± standard error
Description: A crystalline form of the free from of the carboxamide (obtained in Preparation Example 1), a crystalline form of the hydrobromide of the carboxamide (obtained in Example 2) and a crystalline form of the mesylate of the carboxamide (Form A) (obtained in Example 5) were grounded in a mortar, encapsulated in a gelatin capsule, and then administered orally to beagle dogs (n=3). After administration, 10 mL of water was further administered orally. The dose was set such that it was equivalent to 3 mg/kg as a free form, and the beagle dogs were fasted from the day before administration, and fed again 8 hours after the administration.
To calculate bioavailability (BA), a test was conducted using a single intravenous administration. More specifically, a crystalline form of the free from of the carboxamide was dissolved in a solution containing 10% dimethyl sulfoxide, 50% polyethylene glycol 400 and 40% 0.1 M aqueous solution of hydrochloric acid and administered intravenously through cephalic vein of the foreleg.
The plasma concentration of the carboxamide was measured by HPLC-UV method after sampling blood from cephalic vein of the foreleg. Based on the concentration, pharmacokinetic parameters were calculated for each individual by the moment method. Further, based on the calculated parameters, the mean value and standard error thereof were calculated.

c-Kit kinase = c-Kit kinase (Homo sapiens, UniProt P10721); conditions: cited from earlier work
Chain of c-Kit kinase (P10721 26-976): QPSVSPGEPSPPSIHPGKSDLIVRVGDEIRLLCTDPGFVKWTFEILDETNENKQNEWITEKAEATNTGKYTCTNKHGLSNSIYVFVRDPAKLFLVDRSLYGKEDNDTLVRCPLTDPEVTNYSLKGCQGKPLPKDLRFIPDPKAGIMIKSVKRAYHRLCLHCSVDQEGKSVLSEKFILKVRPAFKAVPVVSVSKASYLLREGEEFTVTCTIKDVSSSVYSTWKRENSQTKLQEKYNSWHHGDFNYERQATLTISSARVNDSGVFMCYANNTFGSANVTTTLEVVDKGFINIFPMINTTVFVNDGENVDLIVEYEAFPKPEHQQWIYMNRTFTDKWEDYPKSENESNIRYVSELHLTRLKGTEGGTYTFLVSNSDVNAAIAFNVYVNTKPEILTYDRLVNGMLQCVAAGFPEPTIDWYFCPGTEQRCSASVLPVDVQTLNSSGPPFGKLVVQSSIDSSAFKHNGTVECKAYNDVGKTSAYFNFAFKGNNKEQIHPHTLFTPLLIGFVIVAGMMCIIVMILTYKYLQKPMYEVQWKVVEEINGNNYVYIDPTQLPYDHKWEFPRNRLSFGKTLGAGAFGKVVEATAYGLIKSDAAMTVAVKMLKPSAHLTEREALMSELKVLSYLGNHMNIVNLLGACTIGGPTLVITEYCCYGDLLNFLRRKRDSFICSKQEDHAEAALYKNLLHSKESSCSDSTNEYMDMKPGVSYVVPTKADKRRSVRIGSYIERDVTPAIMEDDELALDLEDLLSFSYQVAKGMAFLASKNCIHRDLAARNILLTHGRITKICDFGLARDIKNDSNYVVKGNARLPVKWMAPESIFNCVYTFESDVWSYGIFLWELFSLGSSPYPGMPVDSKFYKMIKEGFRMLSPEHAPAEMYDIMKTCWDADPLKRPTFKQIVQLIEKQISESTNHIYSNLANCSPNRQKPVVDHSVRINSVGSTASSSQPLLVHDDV

dissolution rate [1]: 0.8 μg/min/cm^2
BA ([2]; beagle dogs n=3, oral 3 mg/kg as free form vs single intravenous administration of free form): 9.1 ± 0.4%
AUC(0-t) ([2]; dog, plasma, beagle dogs n=3, oral, gelatin capsule, 3 mg/kg as free form, fasted, read-out: AUC0-24hr): 600 ng·h/mL
Cmax ([2]; dog, plasma, beagle dogs n=3, oral, gelatin capsule, 3 mg/kg as free form, fasted, read-out: Maximum plasma concentration (Cmax)): 53.3 ± 9.9 ng/mL
concentration at 24 h ([2]; dog, plasma, beagle dogs n=3, oral, gelatin capsule, 3 mg/kg as free form, fasted, read-out: plasma concentration after 24 hours (C24hr)): 24 ± 9 ng/mL
Tmax ([2]; dog, plasma, beagle dogs n=3, oral, gelatin capsule, 3 mg/kg as free form, fasted, read-out: time to reach maximum plasma concentration (Tmax)): 1.17 ± 0.4 h
SMILES: COc1cc2nccc(Oc3ccc(NC(=O)NC4CC4)c(Cl)c3)c2cc1C(N)=O [free form, 4-(3-chloro-4-(cyclopropylaminocarbonyl)aminophenoxy)-7-methoxy-6-quinolinecarboxamide]
angiogenesis inhibition (angiogenesis): excellent angiogenesis inhibition
inhibitory action for c-Kit kinase (c-Kit kinase): strong inhibitory action
